Source: patent US20240132521A1, “COMPOUNDS AND METHODS FOR MODULATING HER2” (Iambic Therapeutics, Inc., priority 2022, published 2024)
Counter-ions that a name gives are not always drawn. Like-named read-outs stand apart in the source and are kept apart here.

Experiments:
Assay type in all cases: cell-based
[1] = target: BaF3_EGFRWT cells (Homo sapiens, UniProt P00533); experiment: Cell growth inhibition assay (CellTiterGlo), BaF3_EGFRWT
[2] = target: BaF3_HER2WT cells (Homo sapiens, UniProt P04626); experiment: Cell growth inhibition assay (CellTiterGlo), BaF3_HER2WT
BaF3_HER2WT cells, sequence (P04626 whole entry, change not shown): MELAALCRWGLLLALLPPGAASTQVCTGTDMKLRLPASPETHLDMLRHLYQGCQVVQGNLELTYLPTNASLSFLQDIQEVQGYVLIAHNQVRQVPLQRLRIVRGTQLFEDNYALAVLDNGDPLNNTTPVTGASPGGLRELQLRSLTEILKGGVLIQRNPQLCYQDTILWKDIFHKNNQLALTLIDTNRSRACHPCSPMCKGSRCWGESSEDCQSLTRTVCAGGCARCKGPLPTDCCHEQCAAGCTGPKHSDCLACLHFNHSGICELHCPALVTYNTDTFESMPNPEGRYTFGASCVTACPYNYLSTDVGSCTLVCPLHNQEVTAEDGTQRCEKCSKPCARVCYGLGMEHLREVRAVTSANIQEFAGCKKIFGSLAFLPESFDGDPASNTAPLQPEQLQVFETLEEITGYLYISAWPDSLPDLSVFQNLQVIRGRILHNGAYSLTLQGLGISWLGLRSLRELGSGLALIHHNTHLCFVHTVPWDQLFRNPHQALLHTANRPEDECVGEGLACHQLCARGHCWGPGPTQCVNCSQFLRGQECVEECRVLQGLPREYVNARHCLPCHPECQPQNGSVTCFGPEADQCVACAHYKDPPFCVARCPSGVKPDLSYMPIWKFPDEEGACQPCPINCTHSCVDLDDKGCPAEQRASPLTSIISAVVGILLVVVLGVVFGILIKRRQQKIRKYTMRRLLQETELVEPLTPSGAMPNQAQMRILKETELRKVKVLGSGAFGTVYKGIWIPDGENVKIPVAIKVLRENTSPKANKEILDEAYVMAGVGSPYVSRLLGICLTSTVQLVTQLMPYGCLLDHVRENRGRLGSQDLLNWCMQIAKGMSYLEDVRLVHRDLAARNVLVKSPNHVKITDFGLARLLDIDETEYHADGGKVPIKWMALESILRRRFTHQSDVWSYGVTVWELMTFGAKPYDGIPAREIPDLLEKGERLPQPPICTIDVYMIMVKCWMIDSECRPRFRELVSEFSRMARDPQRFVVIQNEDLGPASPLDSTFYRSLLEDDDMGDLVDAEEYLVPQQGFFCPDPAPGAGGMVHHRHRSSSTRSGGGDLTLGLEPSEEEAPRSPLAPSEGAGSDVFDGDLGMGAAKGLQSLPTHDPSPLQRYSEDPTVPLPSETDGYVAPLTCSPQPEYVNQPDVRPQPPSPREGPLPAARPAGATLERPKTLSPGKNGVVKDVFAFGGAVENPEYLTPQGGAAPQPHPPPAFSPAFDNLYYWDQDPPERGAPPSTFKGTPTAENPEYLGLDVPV

[3] = target: BaF3_HER2YVMA cells (Homo sapiens, UniProt P04626, DUP772-775, cells depend on it); experiment: Cell growth inhibition assay (CellTiterGlo), BaF3_HER2YVMA
BaF3_HER2YVMA cells, sequence (P04626 with tags, fused parts or gaps DUP772-775): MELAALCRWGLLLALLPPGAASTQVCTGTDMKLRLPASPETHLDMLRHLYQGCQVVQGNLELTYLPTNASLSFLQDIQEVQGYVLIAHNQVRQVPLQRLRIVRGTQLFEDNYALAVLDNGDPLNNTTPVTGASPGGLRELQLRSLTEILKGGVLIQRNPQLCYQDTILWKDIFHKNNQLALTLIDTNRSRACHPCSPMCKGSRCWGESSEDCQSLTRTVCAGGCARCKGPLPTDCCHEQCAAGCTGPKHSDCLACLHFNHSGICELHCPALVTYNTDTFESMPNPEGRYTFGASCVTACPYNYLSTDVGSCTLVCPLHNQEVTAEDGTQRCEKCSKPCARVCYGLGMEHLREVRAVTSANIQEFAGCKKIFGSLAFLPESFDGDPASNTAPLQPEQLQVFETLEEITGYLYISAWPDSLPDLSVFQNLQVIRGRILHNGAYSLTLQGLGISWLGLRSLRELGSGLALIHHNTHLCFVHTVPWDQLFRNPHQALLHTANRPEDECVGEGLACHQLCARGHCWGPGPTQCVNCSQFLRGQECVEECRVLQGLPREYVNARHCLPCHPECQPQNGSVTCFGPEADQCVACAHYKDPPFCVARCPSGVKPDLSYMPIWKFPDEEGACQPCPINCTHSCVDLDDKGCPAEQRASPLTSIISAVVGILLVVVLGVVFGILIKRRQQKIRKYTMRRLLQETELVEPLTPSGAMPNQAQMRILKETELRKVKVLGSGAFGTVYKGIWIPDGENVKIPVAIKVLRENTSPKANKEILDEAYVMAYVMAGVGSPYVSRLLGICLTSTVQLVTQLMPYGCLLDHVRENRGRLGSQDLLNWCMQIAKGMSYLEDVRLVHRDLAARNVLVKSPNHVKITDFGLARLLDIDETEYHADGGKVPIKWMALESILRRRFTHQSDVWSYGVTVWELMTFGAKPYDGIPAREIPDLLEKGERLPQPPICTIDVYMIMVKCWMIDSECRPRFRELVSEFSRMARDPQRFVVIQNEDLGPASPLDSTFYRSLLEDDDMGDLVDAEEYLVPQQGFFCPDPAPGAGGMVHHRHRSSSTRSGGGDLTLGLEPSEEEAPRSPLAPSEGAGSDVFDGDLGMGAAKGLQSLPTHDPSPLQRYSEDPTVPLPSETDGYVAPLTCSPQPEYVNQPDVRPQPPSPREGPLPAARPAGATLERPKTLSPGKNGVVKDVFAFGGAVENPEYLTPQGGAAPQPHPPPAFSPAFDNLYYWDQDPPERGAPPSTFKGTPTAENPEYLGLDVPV

[4] = 3-day treatment, CellTiterGlo, read-out: Cell growth inhibition activity, EGFR WT
[5] = 3-day treatment, CellTiterGlo, read-out: Cell growth inhibition activity, HER2 WT
[6] = cell growth inhibition, 3 days treatment, read-out: HER2 WT IC50
[7] = cell growth inhibition, 3 days treatment, read-out: HER2 - YVMA IC50
[8] = cell growth inhibition, 80 ng/mL EGF, 3 days treatment, read-out: EGFR WT IC50

BaF3_EGFRWT cells, sequence (P00533 whole entry, change not shown): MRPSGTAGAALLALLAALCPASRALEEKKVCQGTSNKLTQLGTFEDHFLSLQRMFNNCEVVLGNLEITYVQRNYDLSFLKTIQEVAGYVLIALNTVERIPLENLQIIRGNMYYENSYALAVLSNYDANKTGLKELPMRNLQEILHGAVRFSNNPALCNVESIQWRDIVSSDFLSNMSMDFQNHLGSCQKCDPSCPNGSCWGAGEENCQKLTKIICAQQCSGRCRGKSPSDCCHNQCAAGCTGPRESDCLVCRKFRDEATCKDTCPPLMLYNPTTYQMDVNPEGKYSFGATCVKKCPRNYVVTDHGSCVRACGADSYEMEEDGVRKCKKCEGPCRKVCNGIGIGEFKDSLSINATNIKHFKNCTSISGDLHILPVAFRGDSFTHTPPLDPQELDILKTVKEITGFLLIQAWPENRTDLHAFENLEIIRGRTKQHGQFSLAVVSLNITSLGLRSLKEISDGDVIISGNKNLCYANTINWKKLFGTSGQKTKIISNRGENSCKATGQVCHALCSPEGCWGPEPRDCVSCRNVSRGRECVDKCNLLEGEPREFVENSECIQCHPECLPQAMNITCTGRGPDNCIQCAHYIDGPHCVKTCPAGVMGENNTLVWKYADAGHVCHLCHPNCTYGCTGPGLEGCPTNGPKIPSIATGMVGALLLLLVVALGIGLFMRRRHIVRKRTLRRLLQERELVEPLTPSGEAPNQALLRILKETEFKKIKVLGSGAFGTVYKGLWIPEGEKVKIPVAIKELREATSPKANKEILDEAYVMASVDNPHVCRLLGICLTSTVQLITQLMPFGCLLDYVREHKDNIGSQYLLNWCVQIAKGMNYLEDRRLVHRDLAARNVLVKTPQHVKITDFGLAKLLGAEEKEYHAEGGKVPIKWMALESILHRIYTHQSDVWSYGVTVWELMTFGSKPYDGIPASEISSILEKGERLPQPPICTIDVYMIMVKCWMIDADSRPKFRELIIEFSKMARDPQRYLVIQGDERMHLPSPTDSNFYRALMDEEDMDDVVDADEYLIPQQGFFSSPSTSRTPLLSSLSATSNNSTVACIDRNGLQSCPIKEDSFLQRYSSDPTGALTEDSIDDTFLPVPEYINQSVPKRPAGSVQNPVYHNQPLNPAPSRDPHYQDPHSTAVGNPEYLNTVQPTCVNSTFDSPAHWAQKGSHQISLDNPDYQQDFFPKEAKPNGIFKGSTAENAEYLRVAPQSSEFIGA

Structure (SMILES)	GI50 [1, 4] [nM]	GI50 [2, 5] [nM]	GI50 ([3]; 3-day treatment, CellTiterGlo, read-out: Cell growth inhibition activity, HER2 - YVMA) [nM]	GI50 [2, 6] [nM]	GI50 [3, 7] [nM]	GI50 [1, 8] [nM]
COC1CCN(C/C=C/C(=O)N2CCC(c3ccn4ncnc(Nc5ccc(Oc6ccc7c(c6)ncn7C)c(C)c5)c34)CC2)C1 (racemic) [Example 106, (E)-4-(3-methoxypyrrolidin-1-yl)-1-(4-(4-((3-methyl-4-((1-methyl-1H-benzo[d]imidazol-5-yl)oxy)phenyl)amino)pyrrolo[2,1-f][1,2,4]triazin-5-yl)piperidin-1-yl)but-2-en-1-one]	1500 to 5000	–	–	–	–	–
C=CC(=O)N1C[C@H]2C[C@@H]1C[C@H]2c1ccn2ncnc(Nc3ccc(Oc4ccn5ncnc5c4)c(C)c3)c12 (relative stereo) [Example 104, Rel-1-1(1S,4S,5R)-5-{4-[(3-methyl-4-{[1,2,4]triazolo[1,5-a]pyridin-7-yloxy}phenyl)amino]pyrrolo[2,1-f][1,2,4]triazin-5-yl}-2-azabicyclo[2.2.1]heptan-2-yl]prop-2-en-1-one]	1500 to 5000	500 to 1500	1500 to 5000	–	–	–
Cc1cc(Nc2ncnn3ccc(C4CCN(C(=O)/C=C/CN(C)C)C4)c23)ccc1Oc1ccn2ncnc2c1 (single isomer, unassigned) [Examples 99 and 100, first eluting isomer, (E)-1-(3-(4-((4-([1,2,4]triazolo[1,5-a]pyridin-7-yloxy)-3-methylphenyl)amino)pyrrolo[2,1-f][1,2,4]triazin-5-yl)pyrrolidin-1-yl)-4-(dimethylamino)but-2-en-1-one]	–	–	–	< 200	< 200	1500 to 5000
Cc1cc(Nc2ncnn3ccc(C4CCN(C(=O)/C=C/CN(C)C)C4)c23)ccc1Oc1ccn2ncnc2c1 (single isomer, unassigned) [Examples 99 and 100, second eluting isomer, (E)-1-(3-(4-((4-([1,2,4]triazolo[1,5-a]pyridin-7-yloxy)-3-methylphenyl)amino)pyrrolo[2,1-f][1,2,4]triazin-5-yl)pyrrolidin-1-yl)-4-(dimethylamino)but-2-en-1-one]	–	–	–	< 200	500 to 1500	1500 to 5000
Cc1cc(Nc2ncnn3ccc(C4CCCN(C(=O)/C=C/CN(C)C)C4)c23)ccc1Oc1ccn2ncnc2c1 (single isomer, unassigned) [Examples 107 and 108, first eluting isomer, (E)-1-(3-(4-((4-([1,2,4]triazolo[1,5-a]pyridin-7-yloxy)-3-methylphenyl)amino)pyrrolo[2,1-f][1,2,4]triazin-5-yl)piperidin-1-yl)-4-(dimethylamino)but-2-en-1-one]	–	–	–	< 200	500 to 1500	1500 to 5000
Cc1cc(Nc2ncnn3ccc(C4CCCN(C(=O)/C=C/CN(C)C)C4)c23)ccc1Oc1ccn2ncnc2c1 (single isomer, unassigned) [Examples 107 and 108, second eluting isomer, (E)-1-(3-(4-((4-([1,2,4]triazolo[1,5-a]pyridin-7-yloxy)-3-methylphenyl)amino)pyrrolo[2,1-f][1,2,4]triazin-5-yl)piperidin-1-yl)-4-(dimethylamino)but-2-en-1-one]	–	–	–	500 to 1500	1500 to 5000	1500 to 5000
Cc1cc(Nc2ncnn3ccc(C4CCCN(C(=O)/C=C/CN(C)C)CC4)c23)ccc1Oc1ccn2ncnc2c1 (single isomer, unassigned) [Examples 109 and 110, first eluting isomer, (E)-1-(4-(4-((4-([1,2,4]triazolo[1,5-a]pyridin-7-yloxy)-3-methylphenyl)amino)pyrrolo[2,1-f][1,2,4]triazin-5-yl)azepan-1-yl)-4-(dimethylamino)but-2-en-1-one]	–	–	–	< 200	< 200	1500 to 5000
C=CC(=O)N1CCCC(c2ccn3ncnc(Nc4ccc(Oc5ccn6ncnc6c5)c(C)c4)c23)CC1 (single isomer, unassigned) [Examples 111 and 112, first eluting isomer, 1-(4-(4-((4-([1,2,4]triazolo[1,5-a]pyridin-7-yloxy)-3-methylphenyl)amino)pyrrolo-[2,1-f][1,2,4]triazin-5-yl)azepan-1-yl)prop-2-en-1-one]	–	–	–	< 200	< 200	1500 to 5000
C=CC(=O)N1CCCC(c2ccn3ncnc(Nc4ccc(Oc5ccn6ncnc6c5)c(C)c4)c23)CC1 (single isomer, unassigned) [Examples 111 and 112, second eluting isomer, 1-(4-(4-((4-([1,2,4]triazolo[1,5-a]pyridin-7-yloxy)-3-methylphenyl)amino)pyrrolo-[2,1-f][1,2,4]triazin-5-yl)azepan-1-yl)prop-2-en-1-one]	–	–	–	–	–	1500 to 5000
Cc1cc(Nc2ncnn3ccc(C4CC5CCC(C4)N5C(=O)/C=C/CN(C)C)c23)ccc1Oc1ccn2ncnc2c1 (single isomer, unassigned) [Examples 122 and 123, first eluting isomer, (E)-1-(−3-(4-((4-([1,2,4]triazolo[1,5-a]pyridin-7-yloxy)-3-methylphenyl)amino)pyrrolo[2,1-f][1,2,4]triazin-5-yl)-8-azabicyclo[3.2.1]octan-8-yl)-4-(dimethylamino)but-2-en-1-one]	–	–	–	< 200	< 200	500 to 1500
Cc1cc(Nc2ncnn3ccc(C4CC5CCC(C4)N5C(=O)/C=C/CN(C)C)c23)ccc1Oc1ccn2ncnc2c1 (single isomer, unassigned) [Examples 122 and 123, second eluting isomer, (E)-1-(3-(4-((4-([1,2,4]triazolo[1,5-a]pyridin-7-yloxy)-3-methylphenyl)amino)pyrrolo[2,1-f][1,2,4]triazin-5-yl)-8-azabicyclo[3.2.1]octan-8-yl)-4-(dimethylamino)but-2-en-1-one]	–	–	–	< 200	200 to 500	1500 to 5000
C=CC(=O)N1C2CCC1CC(c1ccn3ncnc(Nc4ccc(Oc5ccn6ncnc6c5)c(C)c4)c13)C2 (single isomer, unassigned) [Examples 124 and 125, first eluting isomer, 1-(3-(4-((4-([1,2,4]triazolo[1,5-a]pyridin-7-yloxy)-3-methylphenyl)amino)pyrrolo[2,1-f][1,2,4]triazin-5-yl)-8-azabicyclo[3.2.1]octan-8-yl)prop-2-en-1-one]	–	–	–	< 200	< 200	< 200
Cc1cc(Nc2ncnn3ccc(C4CCN(C(=O)/C=C/CN(C)C)CC4)c23)ccc1Oc1ccn2ncnc2c1 [Example 21, (E)-1-(4-(4-((4-([1,2,4]triazolo[1,5-a]pyridin-7-yloxy)-3-methylphenyl)amino)pyrrolo[2,1-f][1,2,4]triazin-5-yl)piperidin-1-yl)-4-(dimethylamino)but-2-en-1-one]	1500 to 5000	–	–	–	–	–
COC1CN(C/C=C/C(=O)N2CC(c3ccn4ncnc(Nc5ccc(Oc6ccn7ncnc7c6)c(C)c5)c34)C2)C1 [Example 39, (E)-1-(3-(4-((4-([1,2,4]triazolo[1,5-a]pyridin-7-yloxy)-3-methylphenyl)amino)pyrrolo[2,1-f][1,2,4]triazin-5-yl)azetidin-1-yl)-4-(3-methoxyazetidin-1-yl)but-2-en-1-one]	1500 to 5000	< 200	–	–	–	–
Cc1cc(Nc2ncnn3ccc(C(=O)NCCCN(C)C)c23)ccc1Oc1ccn2ncnc2c1 [Example 179, 4-((4-([1,2,4]triazolo[1,5-a]pyridin-7-yloxy)-3-methylphenyl)amino)-N-(3-(dimethylamino)-propyl)pyrrolo[2,1-f][1,2,4]triazine-5-carboxamide hydrochloride]	> 5000	200 to 500	–	–	–	–
